The record followed here is publication PMC10333884, “Large‐scale phosphomimetic screening identifies phospho‐modulated motif‐based protein interactions” (Molecular Systems Biology, 2023).

Test [1] concerns the target T1, KPNA4 ARM Major (Homo sapiens, UniProt O00629).
T1 construct: 60-487; GST (cleaved yes); made in house; host or cells: Escherichia coli BL21-Gold(DE3)
The test is described as follows: FP displacement assay, KPNA4 ARM major pocket. The test is classed as binding. The note with it: for IC50: Fig 3E, KPNA4 ARM major, technical triplicates, read-out: IC50 values of displacement curves, with SEM; for Kd: major pocket probe FITC-MYC 5 nM, 50 mM sodium phosphate pH 7.4, room temperature, at least three technical replicates, read-out: KD values ± SEM. How it is done: (§1) FP experiments were performed as described previously (Kliche et al, [2021]). Shortly, in order to monitor the binding event, FITC‐labelled peptides were used (excitation 495 nm, emission: 535 nm) and the FP signal was recorded in mP on a SpectraMax iD5 Multi‐Mode Microplate Reader (Molecular Devices) by measuring the emitted light in two angels. The measurements were performed at room temperature and prepared in nonbinding black half area 96‐well microplates (Corning®; 50 μl/well). For measuring direct binding, that is saturation curves, a 1:1 dilution series of protein domain (25 μl/well) was generated in 50 mM sodium phosphate buffer pH 7.4 and the measurement performed with 5 nM FITC‐labelled peptide (25 μl/well). The buffer‐corrected values were subsequently plotted with PRISM and fitted to the quadratic equation (Gianni et al, [2005]).
(§2) The 1:1 dilution series in this experiment was performed with the unlabelled peptide in 50 mM sodium phosphate buffer pH 7.4, so that each well‐contained unlabelled peptide (25 μl) at a certain concentration and pre‐formed complex (25 μl). The KD values of this indirectly monitored binding event were calculated as described previously (Nikolovska‐Coleska et al, [2004]). All measurements were at least in technical triplicates as well as biological duplicates when indicated. An amplitude shift between repeat measurements in the displacement experiments was occasionally observed due to variations in the protein preparations. If that was the case, the “active” protein concentration was back‐calculated according to the quadratic equation from the saturation curves performed in parallel. By comparing the active protein concentrations in the complex between different protein preparations, the amplitude was normalised.

The test system of test [2] is KPNA4 ARM. The test is described as follows: Phosphomimetic ProP-PD selection, KPNA4 ARM. It counts as binding, human. The note with it: phosphomimetic enrichment score of the wild-type/phosphomimetic (E) pair at the phosphosite, PM_HD2 phage selection; same score in the major and minor pocket; P-value in brackets not taken.
The target in test [3] is T2, KPNA4 ARM minor (Homo sapiens, UniProt O00629).
T2 construct: 60-487; GST (cleaved yes); made in house; host or cells: Escherichia coli BL21-Gold(DE3)
The test is described as follows: FP displacement assay, KPNA4 ARM minor pocket. It counts as binding. The note with it: for IC50: Fig 3E, KPNA4 ARM minor, technical triplicates, read-out: IC50 values of displacement curves, with SEM; for Kd: minor pocket probe FITC-NCOR2 5 nM, 50 mM sodium phosphate pH 7.4, room temperature, at least three technical replicates, read-out: KD values ± SEM. How it is done:
as §1, §2

Non-standard residues stand in square brackets, D forms with d. Residues, ends and D or L forms follow the SMILES beside them. pS = N[C@@H](COP(=O)(O)O)C(=O)O

One may read the IC50 as the midpoint of a concentration-inhibition curve. By Kd is commonly meant the free concentration of one partner at which half of the binding sites on the other are occupied at equilibrium, for simple one-to-one binding.

T1 sequence (O00629 60-487): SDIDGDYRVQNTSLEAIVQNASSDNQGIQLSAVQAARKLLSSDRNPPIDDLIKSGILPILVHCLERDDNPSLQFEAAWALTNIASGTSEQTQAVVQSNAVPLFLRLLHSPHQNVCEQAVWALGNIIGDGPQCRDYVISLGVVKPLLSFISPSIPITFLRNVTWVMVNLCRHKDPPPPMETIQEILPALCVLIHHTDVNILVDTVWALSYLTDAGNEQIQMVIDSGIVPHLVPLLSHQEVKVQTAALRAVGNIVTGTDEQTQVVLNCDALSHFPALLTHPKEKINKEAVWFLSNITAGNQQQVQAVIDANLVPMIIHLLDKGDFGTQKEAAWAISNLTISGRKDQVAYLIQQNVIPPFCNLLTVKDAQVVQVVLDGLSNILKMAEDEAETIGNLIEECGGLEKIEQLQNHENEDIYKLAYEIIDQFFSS
T2 sequence (O00629 60-487): as above

In the case of `CC(=O)N[C@@H](CC(N)=O)C(=O)N[C@@H](Cc1ccc(O)cc1)C(=O)N[C@@H](C)C(=O)N1CCC[C@H]1C(=O)N1CCC[C@H]1C(=O)N[C@H](C(=O)N[C@@H](CCCCN)C(=O)N[C@@H](CCCNC(=N)N)C(=O)N[C@@H](CCC(=O)O)C(=O)N[C@@H](CCCNC(=N)N)C(=O)N[C@H](C(=O)N[C@@H](CCC(=O)O)C(=O)N[C@@H](CO)C(=O)N[C@@H](CC(C)C)C(=O)N[C@H](C(=O)N[C@@H](CCC(N)=O)C(N)=O)[C@@H](C)O)[C@@H](C)O)C(C)C` [RANBP3_114–129 E (p + 6)] (Ac-NYAPPVKRERTESLTQ-NH2), the half-inhibitory concentration (IC50) came out at 1.3 ± 0.1 µM in test [1] and 385 ± 220 µM in test [3]. The Kd was determined as 0.14 ± 0.01 µM in test [1] and 80 ± 27 µM in test [3]. For the same compound, the PES in test [2] is given as −3.1 (0.077).
Turning to `CC(=O)N[C@@H](CC(N)=O)C(=O)N[C@@H](Cc1ccc(O)cc1)C(=O)N[C@@H](C)C(=O)N1CCC[C@H]1C(=O)N1CCC[C@H]1C(=O)N[C@H](C(=O)N[C@@H](CCCCN)C(=O)N[C@@H](CCCNC(=N)N)C(=O)N[C@@H](CCC(=O)O)C(=O)N[C@@H](CCCNC(=N)N)C(=O)N[C@H](C(=O)N[C@@H](COP(=O)(O)O)C(=O)N[C@@H](CO)C(=O)N[C@@H](CC(C)C)C(=O)N[C@H](C(=O)N[C@@H](CCC(N)=O)C(N)=O)[C@@H](C)O)[C@@H](C)O)C(C)C` [RANBP3_114–129 pS (p + 6)] (Ac-NYAPPVKRERT[pS]SLTQ-NH2), in test [1], the IC50 amounted to 2 ± 0.5 µM and the Kd amounted to 0.22 ± 0.03 µM. In test [3], the IC50 is 98 ± 7 µM and the equilibrium dissociation constant (Kd) amounted to 20 ± 1 µM.
